In general, Kp refers to the ratio of the level in a tissue or fluid to that in plasma or blood.

Here are results for one compound from ChEMBL document CHEMBL2390945, “Synthesis and characterization of 123I-CMICE-013: a potential SPECT myocardial perfusion imaging agent” (Bioorg Med Chem, 2013).

SMILES strings stand for the structures.

The subject of series [1] is Blood. Kind of series: Biodistribution in Sprague-Dawley rat blood at 24 hrs by gamma counting analysis. Type of series: ADME, organism-based. As to conditions: in vivo; call rule not given here.
For series [2], the system named is Heart. Kind of series: Biodistribution in Sprague-Dawley rat heart at 24 hrs by gamma counting analysis. The series is classed as ADME, organism-based. As to conditions: in vivo.
For the next series, the system named is Muscle tissue. Briefly: Biodistribution in Sprague-Dawley rat muscle at 24 hrs by gamma counting analysis. Type of series: ADME, organism-based. Conditions: in vivo.
Series [3] relates to Brain. Briefly: Biodistribution in Sprague-Dawley rat brain at 24 hrs by gamma counting analysis. Conditions: in vivo. The series is classed as ADME, organism-based.
In series [4] the test system is Liver. Briefly: Biodistribution in Sprague-Dawley rat liver at 24 hrs by gamma counting analysis. Conditions: in vivo. Type of series: ADME, organism-based.
Another series deals with Kidney. Briefly: Biodistribution in Sprague-Dawley rat kidney at 24 hrs by gamma counting analysis. Type of series: ADME, organism-based. Conditions: in vivo.
In series [5] the test system is Lung. Briefly: Biodistribution in Sprague-Dawley rat lung at 24 hrs by gamma counting analysis. As to conditions: in vivo. The series is classed as ADME, organism-based.
The subject of a further series is Spleen. Kind of series: Biodistribution in Sprague-Dawley rat spleen at 24 hrs by gamma counting analysis. Type of series: ADME, organism-based. Conditions: in vivo.
Series [6] has as its system Thyroid gland. Briefly: Biodistribution in Sprague-Dawley rat thyroid assessed per organ at 24 hrs by gamma counting analysis. The series is classed as ADME, organism-based. As to conditions: in vivo.
In series [7] the test system is Thyroid gland. Kind of series: Biodistribution in Sprague-Dawley rat thyroid assessed per organ at 2 hrs by gamma counting analysis. Type of series: ADME, organism-based. Conditions: in vivo.
The test system of series [8] is Brain. Briefly: Biodistribution in Sprague-Dawley rat brain at 2 hrs by gamma counting analysis. Type of series: ADME, organism-based. Conditions: in vivo.
For series [9], the system named is Lung. Kind of series: Biodistribution in Sprague-Dawley rat lung at 2 hrs by gamma counting analysis. The series is classed as ADME, organism-based. As to conditions: in vivo.
Series [10] in a line: Ratio of drug level in heart to blood in Sprague-Dawley rat measured at 2 hrs. Type of series: ADME.
Series [11] relates to Blood. Briefly: Biodistribution in Sprague-Dawley rat blood at 2 hrs by gamma counting analysis. Conditions: in vivo. Type of series: ADME, organism-based.
Series [12] deals with Liver. Kind of series: Biodistribution in Sprague-Dawley rat liver at 2 hrs by gamma counting analysis. Type of series: ADME, organism-based. As to conditions: in vivo.
The test system of series [13] is Heart. Briefly: Biodistribution in Sprague-Dawley rat heart at 2 hrs by gamma counting analysis. Type of series: ADME, organism-based. Conditions: in vivo.
The nature of series [14]: Ratio of drug level in heart to lung in Sprague-Dawley rat measured at 2 hrs. Conditions: in vivo.
Series [15] is described as follows: Ratio of drug level in heart to liver in Sprague-Dawley rat measured at 2 hrs. Conditions: in vivo.

Take `COc1cc2c(cc1OC)[C@@H]1C(=O)c3ccc4c(c3O[C@@H]1CO2)C[C@H](/C(C)=C\[125I])O4`: the Drug uptake in the series with Blood [1] was 0.06 % ID/g; in the series on Heart [2], “Active”; in the series with Muscle tissue it was “Active”; in the series on Brain [3], “Active”; with Liver [4], “Active”; with Kidney it was “Active”. Moreover, the Drug uptake result in the series with Lung [5] was “Active”; in the series with Spleen, “Active”; with Thyroid gland [6] it was 3.78 %ID; in the series on Thyroid gland [7], 0.34 %ID; in the series on Brain [8] it was 0.34 %Idose/kg; in the series with Lung [9], 0.33 %Idose/kg. Moreover, the Drug uptake in the series with Blood [11] turned out to be 0.14 %Idose/kg; in the series on Liver [12], 1.17 %Idose/kg; with Heart [13], 2.96 %Idose/kg. In series [10], the Kp at 2 h was 22.4. For the same compound, the Ratio is recorded as 9.32 in series [14] and 2.57 in series [15].
